Results reported in patent publication US8058264B2, “Pharmaceutical compositions comprising CB1 cannabinoid receptor antagonists and potassium channel openers for the treatment of obesity and related conditions” (Abbott Products GmbH, priority 2004, dated 2011).

Tests used:
[1] = system: rat perifused pancreatic islets; experiment: Insulin secretion in rat perifused pancreatic islets, simple screen at 11 mM glucose; format: cell-based; settings: for effect on insulin secretion: 0-30 and 30-60 min
Procedure: Animals: Male Wistar rats in the weight range 175-200 g were group housed in standard animal cages at a temperature of 21±2° C. and humidity of 55±10%. Animals were maintained on a 12 h light-dark cycle (lights on 06.00-18.00 h) with free access to standard rodent diet (B&K Universal Ltd standard rat and mouse diet (BK 001P), Beekay Feeds, B&K Universal Ltd, Hull, East Riding of Yorkshire) and tap water. The rats were accustomed to these conditions for at least one week before experimentation.
(§1) Experimental procedures: After the rats were sacrificed, the branch of the bile duct leading to the liver and the duodenal end of the duct in the pancreas were clamped and the pancreas distended by injection of ice-cold 0.9 mg/ml collagenase solution into the bile duct. The pancreas were then removed and incubated statically for 10-12 min at 37° C. Following the incubation, 10 ml of cold buffer was added and the suspension shaken vigorously by hand for 1 min. The islets were allowed to settle for 5 min on ice and washed three times using ice-cold buffer. Well formed and good sized islets from 3 rats were hand-picked (under a low power microscope) and pooled and a final selection of islet transferred to the perifusion apparatus. Oxygenated (95% O2/5% CO2) Gey & Gey buffer containing 1 mg/ml bovine serum albumin and 4 mM glucose were used throughout the experiment unless otherwise stated (see Dickinson et al. Eur J Pharmacol 1997;339:69-76 for further details).
(§2) On each day, two experiments were performed in parallel in 2 identical, independent sets of perifusion apparatus each consisting of sufficient number of chambers. Each chamber was loaded with 20 hand-picked islets. Islets were perifused for an initial 30 min period in media containing 4 mM glucose. Perifusate was then collected at 2 min intervals for the remainder of the experiment.
Perifusate samples were then pooled to create 3 samples per chamber as follows: Baseline (4 mM): Samples 1-5 (first 10 minutes); 0-30 minutes (11 mM glucose): Samples 6-21; 30-60 minutes (11 mM glucose): Samples 22-36.
Perifusate fractions were stored at −75° C. until required for insulin assay. Insulin content of fractions were assayed using a 96-well ELISA assay (Mercodia). Initial insulin assays were performed in triplicate on three pooled fractions from each chamber (18 samples per experiment, 108 samples in total for 6 experiments).

[2] = target: T1, hamster SUR1 (Cricetus cricetus, UniProt Q09427); experiment: Competitive binding to sulfonylurea and KCO sites of SUR1 ([3H]glibenclamide displacement, COS-cell membranes); settings: SUR1 versus SUR2 selectivity, in words
T1 construct: expressed in transfected cells; host or cells: COS-1 cells, transient transfection (pcDNA vector), membrane preparation
T1 sequence (Q09427 whole entry): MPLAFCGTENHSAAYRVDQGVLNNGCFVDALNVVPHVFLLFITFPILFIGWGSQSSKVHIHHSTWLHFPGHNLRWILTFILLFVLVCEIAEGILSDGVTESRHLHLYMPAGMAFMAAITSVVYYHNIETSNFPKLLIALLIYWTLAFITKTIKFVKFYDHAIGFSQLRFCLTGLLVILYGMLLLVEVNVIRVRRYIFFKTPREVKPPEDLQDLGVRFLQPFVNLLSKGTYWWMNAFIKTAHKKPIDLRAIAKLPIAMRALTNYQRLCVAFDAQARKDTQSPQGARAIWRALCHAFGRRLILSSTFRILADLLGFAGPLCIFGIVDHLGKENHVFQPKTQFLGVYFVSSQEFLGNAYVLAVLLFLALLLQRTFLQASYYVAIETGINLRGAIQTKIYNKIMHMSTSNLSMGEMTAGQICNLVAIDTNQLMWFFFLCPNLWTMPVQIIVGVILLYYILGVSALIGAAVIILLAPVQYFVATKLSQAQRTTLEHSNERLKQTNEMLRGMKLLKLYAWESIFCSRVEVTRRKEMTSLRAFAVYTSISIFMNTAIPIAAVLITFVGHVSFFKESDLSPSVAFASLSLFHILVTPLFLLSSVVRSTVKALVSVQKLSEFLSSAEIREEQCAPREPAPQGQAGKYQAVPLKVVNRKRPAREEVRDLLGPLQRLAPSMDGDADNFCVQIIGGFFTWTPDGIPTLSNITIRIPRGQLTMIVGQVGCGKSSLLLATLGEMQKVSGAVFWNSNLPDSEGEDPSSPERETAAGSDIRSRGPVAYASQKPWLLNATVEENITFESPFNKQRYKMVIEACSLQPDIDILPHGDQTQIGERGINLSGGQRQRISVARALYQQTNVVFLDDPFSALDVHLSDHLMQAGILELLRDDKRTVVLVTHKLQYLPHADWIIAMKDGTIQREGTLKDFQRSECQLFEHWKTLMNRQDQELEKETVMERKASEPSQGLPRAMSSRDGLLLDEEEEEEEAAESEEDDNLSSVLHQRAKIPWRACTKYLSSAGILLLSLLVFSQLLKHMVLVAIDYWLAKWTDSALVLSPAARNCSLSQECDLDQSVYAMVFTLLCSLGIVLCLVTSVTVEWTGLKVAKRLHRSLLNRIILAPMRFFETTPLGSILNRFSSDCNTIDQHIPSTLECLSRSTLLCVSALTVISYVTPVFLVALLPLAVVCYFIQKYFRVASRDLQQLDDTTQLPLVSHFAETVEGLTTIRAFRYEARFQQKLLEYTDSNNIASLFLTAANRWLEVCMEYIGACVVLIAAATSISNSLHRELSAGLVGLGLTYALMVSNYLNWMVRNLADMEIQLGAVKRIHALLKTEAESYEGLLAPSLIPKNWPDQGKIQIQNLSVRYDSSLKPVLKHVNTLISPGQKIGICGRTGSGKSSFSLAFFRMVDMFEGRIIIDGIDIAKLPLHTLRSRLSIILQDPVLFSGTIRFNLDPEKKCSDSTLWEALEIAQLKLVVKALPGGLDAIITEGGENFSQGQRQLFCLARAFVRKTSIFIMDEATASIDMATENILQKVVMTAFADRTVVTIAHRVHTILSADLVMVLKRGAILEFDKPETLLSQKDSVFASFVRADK
Procedure: Competitive binding experiments were performed to characterize the affinity of the test compounds for the binding sites for sulfonylureas and KATP channel openers (=KCOs) on hamster SUR1. To assess the affinity for the sulfonylurea site membranes from COS-cells transiently expressing hamster SUR1 were incubated in the presence of [^3H]glibenclamide with increasing concentrations of test compounds. […] Per curve 9-15 distinct concentrations were tested covering the relevant range. All measurements were repeated at least 5 times in independent experiments.
[^3H]glibenclamide (specific activity 51 Ci mmol^−1) was obtained from NEN (Dreieich, Germany). If suitable, stock solutions were prepared in dimethylsulfoxide with a final solvent concentration in the media below 1%.
SUR- or Kir6.x isoforms were used either subcloned in the pcDNA (hamster SUR1, mouse Kir6.2) or pCMV vector (rat SUR2A, SUR2B).
For transfection the cells were incubated 4 hours in a Tris-buffered salt solution containing DNA (5-10 μg/ml) plus DEAE-dextran (1 mg/ml), 2 min in HEPES-buffered salt solution plus dimethylsulfoxide (10%) and 4 hours in DMEM-HG plus chloroquine (100 μM). Cells were then returned to DMEM-HG plus 10% FCS. […] For binding experiments resuspended membranes (final protein concentration 5-50 μg/ml) were incubated in “Tris-buffer” (50 mM, pH 7.4) containing either [^3H]glibenclamide (final concentration 0.3 nM or 3 nM and nonspecific binding defined by 100 nM or 1 μM glibenclamide for SUR1 or SUR2Y1205S-isoforms, respectively) or [^3H]P1075 (final concentration 3 nM, nonspecific binding defined by 100 μM pinacidil) and increasing concentrations of the test compounds. […] Incubations were carried out for 1 h at room temperature and were terminated by rapid filtration through Whatman GF/B filters.
The inhibition constant (Ki value) of the test substances was calculated from the respective IC50 value, and was stated as the negative logarithmised value thereof (pKi).

[3] = system: rat perifused pancreatic islets; experiment: Insulin secretion in rat perifused pancreatic islets, in depth investigation (Phase 1 and Phase 2); format: cell-based; settings: Phase 2, 11 mM glucose
Procedure: Animals: Male Wistar rats in the weight range 175-200 g were group housed in standard animal cages at a temperature of 21±2° C. and humidity of 55±10%. Animals were maintained on a 12 h light-dark cycle (lights on 06.00-18.00 h) with free access to standard rodent diet (B&K Universal Ltd standard rat and mouse diet (BK 001 P), Beekay Feeds, B&K Universal Ltd, Hull, East Riding of Yorkshire) and tap water. The rats were accustomed to these conditions for at least one week before experimentation.
as §1, with “procedures: Three rats (sufficient for” for “procedures: After”, “the isolation of enough islets to allow for 2 perifusion experiments per day)” for “the rats”
as §2, with “was” for “was then”, “experiment. After the first 10 min of the experiment (to collect baseline insulin values), the media in each chamber were switched to one containing the relevant drug concentration/vehicle/glucose concentration and perifusate collected for a further 62 min to produce a total of 36 fractions for each chamber.” for “experiment.”
Experiments were organised to evaluate firstly (Phase I) the effect of Compounds at a single concentration on glucose-stimulated insulin secretion (two independent sets of experiments) and secondly (Phase II), determination of the dose-dependent effect of these compounds to inhibit insulin secretion at 11 mM glucose (three independent sets of experiments).
Perifusate fractions were stored at −75° C. until required for insulin assay. Insulin content of fractions were assayed using a 96-well ELISA assay (Mercodia). Initial insulin assays were performed on only every third fraction (72 assays per experiment).

CN[C@@H](Cc1c[nH]c2ccccc12)C(=O)N1CC(c2ccccc2)C(c2ccc(Cl)cc2)=N1 (stereo partly drawn) [Compound 1, (2S)-1-[3-(4-chlorophenyl)-4-phenyl-4,5-dihydro-1H-pyrazol-1-yl]-3-(1H-indol-3-yl)-N-methyl-1-oxopropan-2-amine] was tested, and the “effect on insulin secretion” value [1] was “significantly inhibited insulin secretion” and the “pki (SUR1) compared with pki (SUR2)” value [2] was “pki (SUR1) larger than pki (SUR2)”.
CC1=NS(=O)(=O)c2cc(Cl)ccc2N1 [Diazoxide, diazoxide, reference compound] was tested, and the “effect on time-dependent insulin secretion” value ([3]; 10 μM) was “only a partial inhibition”, the “reduction of mean insulin secretion” value ([3]; 10 μM) was 50% and the “effect on time-dependent insulin secretion” value ([3]; 100 μM) was “almost completely blocked the stimulatory effect of 11 mM glucose”. The “reduction of mean insulin secretion” value ([3]; 100 μM) was 94%.
For CNC(=NS(=O)(=O)c1ccc(C(F)(F)F)cc1)N1CC(c2cccnc2)C(c2ccc(Cl)cc2)=N1 (stereo not drawn) [Compound 4, 3-(4-chlorophenyl)-N-methyl-4-pyridin-3-yl-N′-{[4-(trifluoromethyl)phenyl]sulfonyl}-4,5-dihydro-1H-pyrazole-1-carboximidamide], the “amount of inhibition of insulin secretion compared with diazoxide” value [1] was “notably greater than diazoxide at 30-60 min”, the “effect on insulin secretion” value [1] was “significantly inhibited insulin secretion at both 0-30 and 30-60 min” and the “pki (SUR1) compared with pki (SUR2)” value [2] was “pki (SUR1) larger than pki (SUR2)”.
For CN(C)CCNC(=NS(=O)(=O)N1CCCCC1)N1CC(c2ccccc2)C(c2ccc(Cl)cc2)=N1 (stereo not drawn) [Compound 2, 3-(4-chlorophenyl)-N-[2-(dimethylamino)ethyl]-4-phenyl-N′-(piperidin-1-ylsulfonyl)-4,5-dihydro-1H-pyrazole-1-carboximidamide], the “effect on insulin secretion” value [1] was “significantly inhibited insulin secretion (only at 0-30 min for compound 2)”.
With CNC(=NS(=O)(=O)N1CCCCC1)N1C[C@H](c2ccccc2)C(c2ccc(Cl)cc2)=N1 [Compound 3, (4S)-3-(4-chlorophenyl)-N-methyl-4-phenyl-N′-(piperidin-1-ylsulfonyl)-4,5-dihydro-1H-pyrazole-1-carboximidamide] the “amount of inhibition of insulin secretion compared with diazoxide” value [1] was “notably greater than diazoxide at 30-60 min” and the “effect on insulin secretion” value [1] was “significantly inhibited insulin secretion at both 0-30 and 30-60 min”.
